Reference: patent US9827260B2, “Composition for buffered aminoalkyl glucosaminide phosphate compounds and its use for enhancing an immune response” (GlaxoSmithKline Biologicals s.a., priority 2013, dated 2017)

Assays:
[1] = Accelerated stability test (forced degradation), 14 days at 40° C; details: both buffers at pH=7.0, FIG. 5
[2] = Sonication processing time to achieve a clear solution of CRX-601 buffered formulations; format: physicochemical
Description: (§1) CRX-601 was formulated in the 10 mM HEPES buffered at pH=7.0 at 2 mg/mL target concentration by weighing 3.99 mg of CRX-601 and adding 1.877 mL of 10 mM HEPES followed by ultrasonication in a water bath sonicator. After 25 minutes the solution was visibly clear, but the sonication was continued since the other CRX-601 formulations with the other buffers employed herein had not yet achieved similar visual appearance. This was done because the goal was to subject each CRX-601 buffered formulation to the same amount of processing energy.
as §1, with “pH=8.0” for “pH=7.0”
Each of the buffer solutions was then sonciated to reduce the particle size to allow for sterile filtration.

| stability of the AGP in HEPES as compared against phosphate buffer [1] | sonication time until solution visibly clear ([2]; 2 mg/mL in 10 mM HEPES at pH=7.0, water bath sonicator) [min] | sonication time until solution visibly clear ([2]; 2 mg/mL in 10 mM HEPES at pH=8.0, water bath sonicator) [min] | SMILES |
| --- | --- | --- | --- |
| enhanced stability | – | – | CCCCCCCCCCC[C@H](CC(=O)N[C@H]1[C@H](OC[C@H](NC(=O)C[C@@H](CCCCCCCCCCC)OC(=O)CCCCCCCCC)C(=O)O)O[C@H](CO)[C@@H](OP(=O)(O)O)[C@@H]1OC(=O)C[C@@H](CCCCCCCCCCC)OC(=O)CCCCCCCCC)OC(=O)CCCCCCCCC [CRX-527] |
| enhanced stability | 25 | 25 | CCCCCCCCCCC[C@H](CC(=O)N[C@H]1[C@H](OC[C@H](NC(=O)C[C@@H](CCCCCCCCCCC)OCCCCCCCCCC)C(=O)O)O[C@H](CO)[C@@H](OP(=O)(O)O)[C@@H]1OC(=O)C[C@@H](CCCCCCCCCCC)OCCCCCCCCCC)OCCCCCCCCCC [CRX-601] |
